Source: PubChem BioAssay AID179 (DTP/NCI, 2004)
Values joined by “and” are separate entries in the source; they are usually repeats but may differ in a detail not shown here. Identical values can stand only once. Active and inactive are the calls of the source.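 How the source made its calls: active means compounds giving half or more protection of infected cells from virus-caused growth loss, again on retest; inactive means the rest.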

Tested on: CEM cells HIV-1 protection, formazan growth assay
Assay: NCI AIDS Antiviral Assay
Settings: for IC50: measured here: growth of uninfected CEM cells
In short: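 Human CEM cells, uninfected and HIV-1-infected, received five drug concentrations, and growth was read by soluble formazan assay. Compounds giving at least 50% protection were retested; reproducible 100% protection defined confirmed active.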

| Compound | EC50 [µM] | IC50 | outcome |
| --- | --- | --- | --- |
| CCCCCCCCCCCCCCCCCCOC(COP(=O)(O)OCC1CCC(n2ccc(NC(=O)CCCCCCCCCCCCCCC)nc2=O)O1)COP(=O)(O)OCC1OC(n2cc(C)c(=O)[nH]c2=O)CC1N=[N+]=[N-] (configuration not stated) | 0.871 | 50.1 µM |  |
| CN(C)C(=Nc1nc(=[N+](C)C)ss1)N(C)C |  |  | inactive |
| NC(N)=NS(=O)(=O)c1ccc(NNc2c3ccccc3nc3c(C(=O)Nc4ccc(S(=O)(=O)Nc5ncccn5)cc4)cccc23)cc1 | > 100 | 22.9 µM |  |
| COc1c(O)c2c(c(O)c1C(C)C)C(=O)C(O)=C1C(C)(C)CCC[C@@]12C | > 120 | 16.2 µM |  |
| Cc1ccc(C)n1-n1c2ccccc2c2ccccc21 | > 100 | > 100 µM |  |
| O=C(O)C1=CC(=C(c2ccc(O)c(C(=O)O)c2)c2ccc(O)c(C(=O)O)c2)C=C(Cc2ccc(O)c(C(=O)O)c2)C1=O | > 1200 | 195 µM |  |
| COc1ccc(/C=C(\Cl)c2ccc(OC)cc2)cc1 | > 200 | > 200 µM |  |
| Nc1nc(N)c(-c2ccccc2)c(C(=O)Nc2nccs2)n1 | > 22.9 | > 22.9 µM |  |
| CCO[C@@H]1CCC(S(=O)c2ccc(C)cc2)=CO1 (some centres not stated) | > 200 | > 200 µM |  |
| Cc1c(Cl)ccc2c1NC(=O)C2(O)C1Cc2ccccc2C1=O (configuration not stated) | > 28.8 | 12.6 µM |  |
| Cc1cc(N(CCCl)CCCl)ccc1N=Nc1ccccc1 | > 200 | 19.5 µM |  |
| N#C/C(=C\c1ccccc1)c1ccccc1F | > 200 | 37.2 µM |  |
| NCCSSC/C=C\CSSCCN |  |  | inactive |
| CC1=C(C)C(=O)C(C2=C(C3=CC(=O)C(C)=C(C)C3=O)C(=O)c3ccccc3C2=O)=CC1=O | > 200 | 5.62 µM |  |
| O=P1(O)c2ccccc2-c2ccccc21 | > 200 | > 200 µM |  |
| O=C(Cn1c2ccc(Br)cc2c2nc3ccccc3nc21)N/N=C/c1ccccc1 | > 100 | > 100 µM |  |
| C[C@]12CC(C=O)C(=O)C(O)=C1CC[C@@H]1C2CC[C@@]2(C)C1CC[C@]2(C)O (some centres not stated) |  |  | inactive |
| CC(=O)NNc1nc(C)c(C(=O)NNC(=O)C(=O)Nc2ccc(Cl)c([N+](=O)[O-])c2)s1 | > 288 | 107 µM |  |
| CCOC1C(CC/C=C\c2ccccc2)CCCCN1C(=O)OC(C)(C)C (configuration not stated) | > 251 | > 251 µM |  |
| CC(Oc1ccc(Oc2cnc3ccc(Cl)cc3n2)cc1)C(=O)O (configuration not stated) | > 141 | 17.4 µM |  |
| COc1cc2c3c(c1)nnn3C(=O)C(c1ccccc1)S2 (configuration not stated) | > 200 | > 200 µM |  |
| CCOC(=O)c1ccc(N/N=[N+](/[O-])CC2OC(n3ccc(=O)[nH]c3=O)C(O[Si](C)(C)C(C)(C)C)C2O[Si](C)(C)C(C)(C)C)cc1 (configuration not stated) | > 200 | 21.4 µM |  |

| Compound | EC50 [µM] | IC50 | outcome |
| --- | --- | --- | --- |
| CC1(C)C(=O)NC(=O)c2ccccc21 | > 200 | > 200 µM |  |
| O=C(O)c1ccc2c(c1C(=O)O)C(=O)c1ccccc1C2=O | > 200 | > 200 µM |  |
| Cc1c(C)c(CC(=O)N2CC2)c(C)c(C)c1CC(=O)N1CC1 | > 200 | 0.794 µM |  |
| COc1ccccc1NC1=NCC(C)S1 (configuration not stated) | > 200 | > 200 µM |  |
| CC(=O)C(=C(I)I)c1ccccc1 |  |  | inactive |
| COc1cc(CNCc2cc(OC)c(OC)c(OC)c2)cc(OC)c1OC | > 200 | > 200 µM |  |
| CCc1n[nH]c(=O)n1NC(=O)c1ccccc1C(=O)O | > 200 | > 200 µM |  |
| CC1(CO)CC(O)C(n2cnc3c(N)ncnc32)O1 (configuration not stated) | > 5.13 | > 5.13 µM |  |
| Nc1nc(=O)[nH]c(N)c1N=O | > 200 | > 200 µM |  |
| Cc1ccc(N=Nc2c(C)nn(-c3ccccc3)c2-c2ccccc2)c(Br)c1 |  |  | inactive |
| O=C1C=C/C(=C/C(O)COC(=O)c2ccccc2)O1 (configuration not stated) | > 138 | 77.6 µM |  |
| Brc1ccc2c(c1)[C@H]1CCc3c([nH]c4ccccc34)[C@H]1N2 | > 200 | 25.7 µM |  |
| CC12CCC(=O)N1[C@@H](c1ccccc1)[C@@H](c1ccccc1)O2 (some centres not stated) | > 234 | > 234 µM |  |
| CC(C)(O)[C@H]1CC[C@@]23CCCC(=O)C2(C1)C3 (some centres not stated) |  |  | inactive |
| Cc1nc2ccc(N=Nc3c(O)ccc4ccccc34)cc2[nH]1 | > 61.7 | 55 µM |  |
| CCC(C)N1CN(c2ccccc2)C2(CCN(CC3COc4ccccc4O3)CC2)C1=O (configuration not stated) | > 200 | 29.5 µM |  |
| COC(=O)NC[C@@H]1OCc2cc3c(cc2[C@]12C=CCCC2)OCO3 | > 107 | 2.63 µM |  |
| Nc1nc2c(c(=O)[nH]1)C(c1ccccc1)CC(=O)N2 (configuration not stated) | > 200 | > 200 µM |  |
| C/C(=N\NC(N)=O)c1cc2cc([N+](=O)[O-])ccc2oc1=O | > 70.8 | > 70.8 µM |  |
| CCCCCCCCCCCC(=O)c1c(O)c2ccccc2oc1=O | > 200 | 155 µM |  |
| Cc1cc(NC(=O)Nc2cc(F)ccc2F)no1 | > 200 | 123 µM |  |
| CN(C)c1ccc2nc3c(cc(Nc4cccc5cccc(Nc6cc7ccccc7c7nc8ccc(N(C)C)cc8[o+]c67)c45)c4ccccc43)[o+]c2c1 | > 100 | 15.1 µM |  |

| Compound | EC50 [µM] | IC50 | outcome |
| --- | --- | --- | --- |
| CN(C)CC1CCCCCCCCCCC1=O (configuration not stated) | > 200 | 117 µM and 93.3 µM |  |
| CN1CCc2ccccc2C(C(=O)c2ccc3c(c2)OCO3)C1=O (configuration not stated) | > 155 | 107 µM |  |
| Cc1ccc(C2=Nc3cc(C)c(Cl)cc3S(=O)(=O)NN2)cc1 | 34.7 | 87.1 µM |  |
| COC(=O)Nc1cn2nc(C)sc2n1 | > 200 | > 200 µM |  |
| COc1ccccc1NC(=S)N/N=C(/c1ccccc1)c1ccccn1 | > 0.2 | 0.0813 µM |  |
| C=C1C[C@@H]2C[C@@H](C)CC(O)[C@]2(CCCNC(=O)CCOCc2ccccc2)C1O (some centres not stated) |  |  | inactive |
| CC(C)(C)OC(=O)N[C@H]1CC2(C=C(Cl)C(=O)C(Cl)=C2)OC1=O |  |  | inactive |
| CCOC(=O)/C(=N/Nc1ccc(C)cc1)N1C(=S)C=C(C)NN(C)C1=S | > 200 | > 200 µM |  |
| COc1cccc(CCNc2c(C#N)c3n(c4ccccc4[n+]3C)c3ncccc23)c1 | > 200 | 1 µM |  |
| CC(=N\N=C\c1ccccn1)/C(C)=N/N=C(C)/C(C)=N/N=C/c1ccccn1 |  |  | inactive |
| CCC(C)C(CC)C(=O)NC(N)=O (configuration not stated) | > 200 | > 200 µM |  |
| Cc1nc(N)c(N2CCN(S(N)(=O)=O)CC2)c(=O)[nH]1 | > 200 | > 200 µM |  |
| CC(=O)O[C@@H]1[C@H](OC(=O)CC(C)C)c2c(ccc3ccc(=O)oc23)OC1(C)C | 13.5 | 53.7 µM |  |
| CC(C)=CCc1cc(C2CC(=O)c3c(O)cc(O)cc3O2)cc(CC=C(C)C)c1O (configuration not stated) |  |  | inactive |
| C1=NN2C(c3ccccc3)=NOC2C2C(c3ccccc3)=NOC12 (configuration not stated) | > 200 | > 200 µM |  |
| c1ccc2c(CCNC3=NCCO3)cccc2c1 |  |  | inactive |
| COc1ccc(/C(Cl)=C/c2ccc(Cl)c(Cl)c2)cc1 | > 200 | > 200 µM |  |
| CCc1cc(=O)oc2c3c(cc(OC)c12)O[C@H](C)[C@@H](C)C3=O | > 200 | 31.6 µM |  |
| CC1OC(OC2C(O[C@H]3CC[C@@]4(C)C(=CC[C@H]5[C@@H]6C[C@@H]7O[C@]8(CC[C@@H](C)CO8)[C@@H](C)[C@@H]7[C@@]6(C)CC[C@@H]54)C3)OC(CO)C(O)C2OC2OC(CO)C(O)C(O)C2O)C(O)C(O)C1O (some centres not stated) | > 200 | 1.17 µM |  |
| CCOC(=O)N1CCN(C=S)CC1 | > 1230 | > 1230 µM |  |
